Earlier results as cited in paper PMC7830118, “Synthesis and Biological Evaluation of ^99mTc(I) Tricarbonyl Complexes Dual-Targeted at Tumoral Mitochondria” (Molecules, 2021).

Tested on: mitochondria fraction isolated from rat myocardium
Method: The ^99mTc-BBN complex accumulates to a low extent (0.19 to 0.24%) in mitochondria when compared with the TPP-containing complexes. […] The highest mitochondrial uptake (0.84 ± 0.06%) was found for the dual-targeted complex, ^99mTc-TPP-BBN, after 2 h of incubation. The measured uptakes are relative values that were obtained in the same manner and, therefore, reflect the mitotropic properties of each complex. However, it is worthwhile to mention that in these ...

## [99Tc].[C-]#[N+]CC(C)(C)OC.[C-]#[N+]CC(C)(C)OC.[C-]#[N+]CC(C)(C)OC.[C-]#[N+]CC(C)(C)OC.[C-]#[N+]CC(C)(C)OC.[C-]#[N+]CC(C)(C)OC [^99mTc-MIBI]
Correction with CCCP and malate dehydrogenase activity
  Mitochondrial uptake after correction for mitochondria in other cellular fractions: 68%
Mitochondria fraction isolated from rat myocardium
  Measured mitochondrial uptake (accumulation in the mitochondria fraction), uncorrected: 2.38%
